The target in one data set is Kallikrein-1 (Homo sapiens, UniProt P06870). In words: Inhibition of recombinant human N-terminal his-tagged KLK1 (19 to 262 residues) expressed in baculovirus infected sf9 insect cells using R110 labelled GSK3162232A as substrate measured every 30 secs intervals for 5 mins by Rhodamine110 dye-based fluorescence assay.
Data set [1] is described as follows: Dissociation constant, pKa of phenol group of the compound by UV spectrophotometric analysis. The format is physicochemical.
The target of data set [2] is T1, Kallikrein-5 (Homo sapiens, UniProt Q9Y337).
T1 sequence (Q9Y337 whole entry): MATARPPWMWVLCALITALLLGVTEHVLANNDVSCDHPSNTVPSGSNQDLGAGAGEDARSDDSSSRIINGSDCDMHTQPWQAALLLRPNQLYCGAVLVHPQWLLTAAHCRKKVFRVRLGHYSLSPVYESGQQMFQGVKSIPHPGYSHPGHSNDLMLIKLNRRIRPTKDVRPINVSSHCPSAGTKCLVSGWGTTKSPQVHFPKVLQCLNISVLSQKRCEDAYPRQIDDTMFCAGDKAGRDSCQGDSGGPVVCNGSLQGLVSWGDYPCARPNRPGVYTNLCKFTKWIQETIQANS
As to the kind of experiment: Inhibition of recombinant human FLAG-tagged KLK5 expressed in baculovirus infected sf9 insect cells using (Tos-Gly-Pro-Arg)2[R110].2TFA as substrate measured every 30 secs intervals for 5 mins by Rhodamine110 dye-based fluorescence assay.

The species entered for a further data set is Homo sapiens. As to the kind of experiment: Selectivity ratio of IC50 for recombinant human N-terminal his-tagged KLK1 (19 to 262 residues) to IC50 for recombinant human FLAG-tagged KLK5.
The target of data set [3] is T2, Kallikrein-14 (Homo sapiens) (UniProt Q9P0G3).
T2 sequence (whole entry): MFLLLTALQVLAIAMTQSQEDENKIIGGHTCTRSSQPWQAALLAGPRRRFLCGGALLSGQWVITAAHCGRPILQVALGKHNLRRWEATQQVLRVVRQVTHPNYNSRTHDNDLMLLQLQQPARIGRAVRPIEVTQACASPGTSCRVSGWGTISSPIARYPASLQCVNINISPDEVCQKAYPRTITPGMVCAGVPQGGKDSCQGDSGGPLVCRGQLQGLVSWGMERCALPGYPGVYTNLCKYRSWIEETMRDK
In words: Inhibition of KLK14 (unknown origin) at 100 uM using Boc-Val-Pro-Arg- AMC substrate incubated for 15 mins by fluorescence assay.

Data set [4] concerns the target T1, Kallikrein-5. As to the kind of experiment: Inhibition of KLK5 (unknown origin) using Boc-Val-Pro-Arg-AMC substrate incubated for 15 mins by fluorescence assay.
The target in another data set is Kallikrein-7 (Homo sapiens, UniProt P49862). As to the kind of experiment: Inhibition of recombinant human KLK7 using S-2586 substrate.
Sequence of Kallikrein-7 (P49862 whole entry): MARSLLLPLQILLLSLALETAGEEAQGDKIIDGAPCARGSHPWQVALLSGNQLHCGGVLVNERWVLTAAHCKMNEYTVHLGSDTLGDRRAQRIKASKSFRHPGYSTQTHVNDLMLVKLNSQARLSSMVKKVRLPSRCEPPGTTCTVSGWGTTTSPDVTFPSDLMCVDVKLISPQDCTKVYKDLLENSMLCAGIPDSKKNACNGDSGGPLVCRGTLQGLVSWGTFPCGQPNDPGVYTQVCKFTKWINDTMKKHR
The target of data set [5] is T1, Kallikrein-5. In words: Inhibition of recombinant human KLK5 using S-2288 substrate.

Molecules are shown by their SMILES.

Sequence of Kallikrein-1 (P06870 whole entry, the tested form may be a part): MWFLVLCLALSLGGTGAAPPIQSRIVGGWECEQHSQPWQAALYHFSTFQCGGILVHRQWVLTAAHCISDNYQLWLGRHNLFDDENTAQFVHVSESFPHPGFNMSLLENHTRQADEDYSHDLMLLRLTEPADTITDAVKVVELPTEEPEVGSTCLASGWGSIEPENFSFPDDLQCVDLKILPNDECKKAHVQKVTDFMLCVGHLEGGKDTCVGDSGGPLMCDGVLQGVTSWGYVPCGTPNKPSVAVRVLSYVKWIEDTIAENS

With `Cc1cccc(C(=O)Nc2ccc(C(=N)N)cc2)c1O`, the 50% inhibitory concentration (IC50) at Kallikrein-1 is 3.16 µM; on Kallikrein-5 [2], 7.94 µM. In data set [1], this compound had a pKa of 6.8.

In the case of `COc1cccc(C(=O)Nc2ccc(C(=N)N)c(F)c2)c1O`, the IC50 on Kallikrein-1 was 0.251 µM; at Kallikrein-5 [2] it was 1 µM.

With `Cn1cccc(C(=O)Nc2ccc(C(=N)N)cc2)c1=O`, the half-maximal inhibitory concentration (IC50) on Kallikrein-1 is 501 µM; at Kallikrein-5 [2], 158 µM.

Consider `N=C(N)c1ccc(NC(=O)c2cccc(Cl)c2O)cc1`, for which the IC50 was 0.631 µM on Kallikrein-1 and 2.51 µM at Kallikrein-5 [2]. The same compound showed a pKa in data set [1] of 5.

As for `N=C(N)c1ccc(NC(=O)c2ccccc2O)cc1F`, the IC50 was 12.6 µM at Kallikrein-1 and 20 µM on Kallikrein-5 [2].

Take `COc1cccc(C(=O)Nc2ccc(C(=N)N)c(Cl)c2)c1O`: the IC50 on Kallikrein-1 was 1.26 µM; on Kallikrein-5 [2], 10 µM.

With `N=C(N)c1ccc(NC(=O)c2ccccc2O)cc1`, the results for the IC50 on Kallikrein-1 and at Kallikrein-5 [2] were 12.6 µM and 6.31 µM, respectively. The pKa in data set [1] came to 6.8.

As to `Cn1c(C(=O)Nc2ccc(C(=N)N)cc2)nc2ccccc21`, the half-maximal inhibitory concentration (IC50) at Kallikrein-1 was 200 µM; at Kallikrein-5 [2] it was 12.6 µM. Also, in the data set filed under Homo sapiens, the Ratio IC50 stood at 10.

For the compound `N=C(N)c1ccc(NC(=O)c2cccc(O)c2O)cc1`, the half-maximal inhibitory concentration (IC50) is 3.98 µM on Kallikrein-1 and 2.51 µM on Kallikrein-5 [2].

Compound `O=C1Oc2ccccc2CC1C(=O)Oc1nccc2ccccc12` (stereo unspecified) registered an inhibition in data set [3] of 61%. On Kallikrein-5 [4], this compound registered a concentration for half-maximal inhibition (IC50) of 7 µM.

For `N=C(N)c1ccc(NC(=O)C2CCCNC2=O)cc1` (stereo unspecified), the figures for the IC50 on Kallikrein-1 and on Kallikrein-5 [2] were 501 µM and 10 µM, respectively. The Ratio IC50 in the data set listed under Homo sapiens was 100.

As to `CCOc1cc2c(=O)oc(-c3ccccc3OC)nc2cc1OC`, the concentration for half-maximal inhibition (IC50) was 0.048 µM on Kallikrein-7 and 0.2 µM at Kallikrein-5 [5].

With `CCOc1cccc(C(=O)Nc2ccc(C(=N)N)cc2)c1O`, the IC50 on Kallikrein-1 is 0.126 µM; on Kallikrein-5 [2], 5.01 µM.

Turning to `Cc1cc(C(=N)N)ccc1NC(=O)c1ccccc1O`, the IC50 is 5.01 µM on Kallikrein-1 and 12.6 µM on Kallikrein-5 [2].

With `N=C(N)c1ccc(NC(=O)N2CCCNC2=O)cc1`, the half-maximal inhibitory concentration (IC50) on Kallikrein-1 is 631 µM; on Kallikrein-5 [2], 10 µM. Besides, the Ratio IC50 in the data set listed under Homo sapiens was 100.

As for `COc1cccc(C(=O)Nc2ccc(C(=N)N)cc2)c1O`, the 50% inhibitory concentration (IC50) was 0.316 µM at Kallikrein-1 and 0.501 µM at Kallikrein-5 [2]. Further, the pKa in data set [1] came out at 6.6.

As for `N=C(N)c1ccc(NC(=O)c2ccccc2O)c(F)c1`, the half-inhibitory concentration (IC50) on Kallikrein-1 was 3.16 µM; on Kallikrein-5 [2], 2.51 µM.

The term IC50 denotes the concentration that gives 50% inhibition. By pKa is commonly meant the pH at which an ionisable group is half protonated. High values mean a weaker acid or stronger base, low ones a stronger acid or weaker base. As a reminder, the inhibition is the percentage by which the read-out fell short of the control. The low end stands for a response near the control, the high end for a response far below the control.

(Values after ChEMBL document CHEMBL4422656, “Kallikrein 5 inhibitors identified through structure based drug design in search for a treatment for Netherton Syndrome” (Bioorg Med Chem Lett, 2019).)
